For one test, the target named is hOx1R (Homo sapiens (Human), UniProt O43613). Briefly: Calcium accumulation in cells (FLIPR), hOx1R. Type of test: cell-based. As to conditions: for inhibition at 10 µM: measured at a concentration of 10 μM of compound; for Ki: inhibition of orexin A induced calcium accumulation, Cheng and Prusoff correction. The gist of the method: (§1)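 Cells expressing human orexin 1 or 2 receptor, serum-deprived overnight, loaded with Fluo-4-AM (2 μM) plus 0.1 mM probenecid, pH 7.4 HEPES buffer with 1% BSA.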
hOx1R, sequence (O43613 whole entry): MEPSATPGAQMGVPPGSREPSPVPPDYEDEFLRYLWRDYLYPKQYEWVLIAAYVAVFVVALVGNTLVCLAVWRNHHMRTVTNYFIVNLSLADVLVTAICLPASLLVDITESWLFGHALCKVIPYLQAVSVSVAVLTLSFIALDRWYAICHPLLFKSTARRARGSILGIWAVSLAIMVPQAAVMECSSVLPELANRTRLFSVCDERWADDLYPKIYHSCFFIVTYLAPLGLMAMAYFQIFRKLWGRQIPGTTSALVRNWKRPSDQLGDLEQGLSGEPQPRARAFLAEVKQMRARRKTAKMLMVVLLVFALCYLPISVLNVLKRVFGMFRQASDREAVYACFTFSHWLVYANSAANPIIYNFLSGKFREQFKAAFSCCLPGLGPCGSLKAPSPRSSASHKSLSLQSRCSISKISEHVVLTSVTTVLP

For another test, the target named is hOx2R (Homo sapiens (Human), UniProt O43614). Briefly: Calcium accumulation in cells (FLIPR), hOx2R. Type of test: cell-based. As to conditions: for Ki: inhibition of orexin A induced calcium accumulation, Cheng and Prusoff correction; for inhibition at 10 µM: measured at a concentration of 10 μM of compound. The method, boiled down:
as §1

hOx2R, sequence (O43614 whole entry): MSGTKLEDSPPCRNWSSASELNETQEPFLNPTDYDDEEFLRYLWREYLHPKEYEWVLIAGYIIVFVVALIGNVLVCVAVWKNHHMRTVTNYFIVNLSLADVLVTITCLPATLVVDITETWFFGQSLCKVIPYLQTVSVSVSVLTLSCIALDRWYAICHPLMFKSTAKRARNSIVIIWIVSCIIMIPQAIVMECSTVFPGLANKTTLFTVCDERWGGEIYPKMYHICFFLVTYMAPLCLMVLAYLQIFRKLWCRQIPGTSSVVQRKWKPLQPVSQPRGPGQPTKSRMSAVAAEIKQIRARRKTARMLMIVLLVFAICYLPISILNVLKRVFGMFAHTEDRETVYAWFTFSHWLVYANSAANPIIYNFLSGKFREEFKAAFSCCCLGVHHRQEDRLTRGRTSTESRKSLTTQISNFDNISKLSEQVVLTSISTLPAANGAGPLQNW

For orientation: inhibition means the drop in the measured response relative to a control, in per cent. A word on the Ki: it is the dissociation constant of the complex between target and ligand, obtained from inhibition or displacement. Consider `Cc1cc(C)n(-c2ccccc2CN2CCCC3(CCN(c4cnc5ccccc5n4)CC3)C2=O)n1` [Example 115, 2-(2-(3,5-dimethyl-1H-pyrazol-1-yl)benzyl)-9-(quinoxalin-2-yl)-2,9-diazaspiro[5.5]undecan-1-one], for which the inhibition at 10 µM on hOx1R stood at 57%. The Ki at hOx2R was 1200 nM.
Regarding `Cc1oc(-c2ccoc2)nc1CN1CCCC2(CCN(c3cnc4ccccc4n3)CC2)C1=O` [Example 116, 2-((2-(furan-3-yl)-5-methyloxazol-4-yl)methyl)-9-(quinoxalin-2-yl)-2,9-diazaspiro[5.5]undecan-1-one], the Ki on hOx1R came out at 3790 nM. Besides, on hOx2R, the inhibition at 10 µM is 53%.
As for `Cc1ncc(CN2CCCC3(CCN(c4cnc5ccccc5n4)CC3)C2=O)c2c1OC(C)(C)OC2` [Example 117, 9-(quinoxalin-2-yl)-2-((2,2,8-trimethyl-4H-[1,3]dioxino[4,5-c]pyridin-5-yl)methyl)-2,9-diazaspiro[5.5]undecan-1-one], the Ki on hOx1R came to 2380 nM; at hOx2R, 249 nM.
Take `O=C1N(Cc2cncn2Cc2ccccc2)CCCC12CCN(c1cnc3ccccc3n1)CC2` [Example 118, 2-((1-benzyl-1H-imidazol-5-yl)methyl)-9-(quinoxalin-2-yl)-2,9-diazaspiro[5.5]undecan-1-one]: the Ki on hOx1R is 1840 nM; on hOx2R, 197 nM.
On to `Cc1nc(-c2ccccc2)oc1CN1CCCC2(CCN(c3cnc4ccccc4n3)CC2)C1=O` [Example 119, 2-((4-methyl-2-phenyloxazol-5-yl)methyl)-9-(quinoxalin-2-yl)-2,9-diazaspiro[5.5]undecan-1-one], for which the Ki on hOx1R worked out at 1900 nM; on hOx2R, 291 nM.
With `O=C1N(Cc2cc(F)cc3c2OCOC3)CCCC12CCN(c1cnc3ccccc3n1)CC2` [Example 120, 2-((6-fluoro-4H-benzo[d][1,3]dioxin-8-yl)methyl)-9-(quinoxalin-2-yl)-2,9-diazaspiro[5.5]undecan-1-one], the results for the Ki on hOx1R and on hOx2R were 700 nM and 125 nM, respectively.
Consider `O=C1N(Cc2cc3ccccc3[nH]2)CCCC12CCN(c1cnc3ccccc3n1)CC2` [Example 121, 2-((1H-indol-2-yl)methyl)-9-(quinoxalin-2-yl)-2,9-diazaspiro[5.5]undecan-1-one], for which the Ki came to 2530 nM at hOx1R and 1660 nM at hOx2R.
For `O=C1N(Cc2nnnn2-c2ccccc2)CCCC12CCN(c1cnc3ccccc3n1)CC2` [Example 122, 2-((1-phenyl-1H-tetrazol-5-yl)methyl)-9-(quinoxalin-2-yl)-2,9-diazaspiro[5.5]undecan-1-one], the inhibition at 10 µM on hOx1R worked out at 31%. Further, the inhibition constant Ki at hOx2R was 725 nM.
On to `O=C1N(Cc2ccc3[nH]ccc3c2)CCCC12CCN(c1cnc3ccccc3n1)CC2` [Example 123, 2-((1H-indol-5-yl)methyl)-9-(quinoxalin-2-yl)-2,9-diazaspiro[5.5]undecan-1-one], for which the inhibition at 10 µM came to 11% on hOx1R and 24% on hOx2R.
Take `N#Cc1ccccc1CN1CCCC2(CCN(c3cnc4ccccc4n3)CC2)C1=O` [Example 124, 2-((1-oxo-9-(quinoxalin-2-yl)-2,9-diazaspiro[5.5]undecan-2-yl)methyl)benzonitrile]: the Ki turned out to be 932 nM on hOx1R and 140 nM at hOx2R.
With `O=C1N(Cc2cccc3c2CCN3)CCCC12CCN(c1cnc3ccccc3n1)CC2` [Example 126, 2-(indolin-4-ylmethyl)-9-(quinoxalin-2-yl)-2,9-diazaspiro[5.5]undecan-1-one], the inhibitory constant (Ki) worked out at 1250 nM on hOx1R and 267 nM on hOx2R.
Turning to `O=C1N(Cc2cc(-n3cccn3)ccn2)CCCC12CCN(c1cnc3ccccc3n1)CC2` [Example 127, 2-((4-(1H-pyrazol-1-yl)pyridin-2-yl)methyl)-9-(quinoxalin-2-yl)-2,9-diazaspiro[5.5]undecan-1-one], the Ki on hOx1R came out at 2340 nM; at hOx2R, 299 nM.
Consider `O=C1N(Cc2c[nH]c3ccccc23)CCCC12CCN(c1nc3cc(Cl)ccc3o1)CC2` [Example 131, 2-((1H-indol-3-yl)methyl)-9-(5-chlorobenzo[d]oxazol-2-yl)-2,9-diazaspiro[5.5]undecan-1-one], for which the inhibition at 10 µM at hOx1R was 48%. Besides, the Ki on hOx2R came out at 524 nM.
Consider `O=C1N(Cc2cccc3c2OCCN3)CCCC12CCN(c1cnc3ccccc3n1)CC2` [Example 132, 2-((3,4-dihydro-2H-benzo[b][1,4]oxazin-8-yl)methyl)-9-(quinoxalin-2-yl)-2,9-diazaspiro[5.5]undecan-1-one], for which the Ki at hOx1R came to 3180 nM; at hOx2R, 555 nM.
Take `Cc1[nH]c2ccccc2c1CN1CCCC2(CCN(c3cnc4ccccc4n3)CC2)C1=O` [Example 133, 2-((2-methyl-1H-indol-3-yl)methyl)-9-(quinoxalin-2-yl)-2,9-diazaspiro[5.5]undecan-1-one]: the Ki at hOx1R amounted to 1150 nM; at hOx2R it was 244 nM.
In the case of `O=C1CCCC2(CCN(c3cnc4ccccc4n3)CC2)N1Cc1ccccc1` [Example 134, 1-benzyl-9-(quinoxalin-2-yl)-1,9-diazaspiro[5.5]undecan-2-one], the Ki on hOx1R came to 1440 nM; at hOx2R, 161 nM.
As to `O=C1CCCC2(CCN(c3cnc4ccccc4n3)CC2)N1Cc1noc2ccccc12` [Example 135, 1-(benzo[d]isoxazol-3-ylmethyl)-9-(quinoxalin-2-yl)-1,9-diazaspiro[5.5]undecan-2-one], the figures for the Ki at hOx1R and at hOx2R were 242 nM and 185 nM, respectively.
On to `O=C1CCCC2(CCN(c3nnc(-c4ccccc4)o3)CC2)N1Cc1cccc2[nH]ccc12` [Example 137, 1-((1H-indol-4-yl)methyl)-9-(5-phenyl-1,3,4-oxadiazol-2-yl)-1,9-diazaspiro[5.5]undecan-2-one], for which the Ki at hOx1R was 509 nM; on hOx2R, 656 nM.
Take `O=C1CCCC2(CCN(c3nc4ccccc4[nH]3)CC2)N1Cc1cccc2[nH]ccc12` [Example 138, 1-((1H-indol-4-yl)methyl)-9-(1H-benzo[d]imidazol-2-yl)-1,9-diazaspiro[5.5]undecan-2-one]: the results for the Ki on hOx1R and on hOx2R were 3790 nM and 1970 nM, respectively.
Take `O=C1CCCC2(CCN(c3nc4ccc(Cl)cc4o3)CC2)N1Cc1cccc2[nH]ccc12` [Example 139, 1-((1H-indol-4-yl)methyl)-9-(6-chlorobenzo[d]oxazol-2-yl)-1,9-diazaspiro[5.5]undecan-2-one]: the results for the Ki on hOx1R and at hOx2R were 541 nM and 105 nM, respectively.
As to `O=C1CCCC2(CCN(c3cnc4ccccc4n3)CC2)N1Cc1c[nH]c2ncccc12` [Example 141, 1-((1H-pyrrolo[2,3-b]pyridin-3-yl)methyl)-9-(quinoxalin-2-yl)-1,9-diazaspiro[5.5]undecan-2-one], the Ki was 1980 nM on hOx1R and 404 nM on hOx2R.
As to `Cn1nc(CN2CCCC3(CCN(c4cnc5ccccc5n4)CC3)C2=O)c2ccccc21` [Example 142, 2-((1-methyl-1H-indazol-3-yl)methyl)-9-(quinoxalin-2-yl)-2,9-diazaspiro[5.5]undecan-1-one], the Ki at hOx1R was determined as 925 nM; at hOx2R, 212 nM.
Turning to `CN1CCOc2c(CN3CCCC4(CCN(c5cnc6ccccc6n5)CC4)C3=O)cccc21` [Example 144, 2-((4-methyl-3,4-dihydro-2H-benzo[b][1,4]oxazin-8-yl)methyl)-9-(quinoxalin-2-yl)-2,9-diazaspiro[5.5]undecan-1-one], the Ki came out at 3250 nM at hOx1R and 596 nM on hOx2R.
In the case of `O=C1N(Cc2c[nH]c3ccccc23)CCCC12CCN(c1cnc3nccnc3c1)CC2` [Example 146, 2-((1H-indol-3-yl)methyl)-9-(pyrido[3,2-b]pyrazin-7-yl)-2,9-diazaspiro[5.5]undecan-1-one], the inhibition at 10 µM at hOx1R is 29%. Also, on hOx2R, the inhibitory constant (Ki) came out at 621 nM.
Take `Cn1nccc1-c1ccccc1CN1CCCC2(CCN(c3cnc4ccccc4n3)CC2)C1=O` [Example 148, 2-(2-(1-methyl-1H-pyrazol-5-yl)benzyl)-9-(quinoxalin-2-yl)-2,9-diazaspiro[5.5]undecan-1-one]: the inhibition at 10 µM is 30% on hOx1R and 32% on hOx2R.
On to `O=C1N(Cc2ccccc2-c2ncccn2)CCCC12CCN(c1cnc3ccccc3n1)CC2` [Example 151, 2-(2-(pyrimidin-2-yl)benzyl)-9-(quinoxalin-2-yl)-2,9-diazaspiro[5.5]undecan-1-one], for which, on hOx1R, the inhibition at 10 µM is 14%. Besides, the Ki at hOx2R amounted to 675 nM.
Take `Cc1ccc2nc(N3CCC4(CCCN(Cc5c[nH]c6ccccc56)C4=O)CC3)sc2c1` [Example 153, 2-((1H-indol-3-yl)methyl)-9-(6-methylbenzo[d]thiazol-2-yl)-2,9-diazaspiro[5.5]undecan-1-one]: the results for the inhibition at 10 µM on hOx1R and at hOx2R were 22% and 35%, respectively.
For `O=C1N(Cc2c[nH]c3ccccc23)CCCC12CCN(c1nccc(-c3ccccc3)n1)CC2` [Example 154, 2-((1H-indol-3-yl)methyl)-9-(4-phenylpyrimidin-2-yl)-2,9-diazaspiro[5.5]undecan-1-one], the Ki at hOx1R worked out at 646 nM; at hOx2R it was 115 nM.
`O=C1N(Cc2c[nH]c3ccccc23)CCCC12CCN(c1ncnc3[nH]ccc13)CC2` [Example 155, 2-((1H-indol-3-yl)methyl)-9-(7H-pyrrolo[2,3-d]pyrimidin-4-yl)-2,9-diazaspiro[5.5]undecan-1-one]: the inhibitory constant (Ki) came to 1530 nM on hOx1R and 239 nM on hOx2R.
Turning to `Cc1nnc(N2CCC3(CCCN(Cc4c[nH]c5ccccc45)C3=O)CC2)c2ccccc12` [Example 157, 2-((1H-indol-3-yl)methyl)-9-(4-methylphthalazin-1-yl)-2,9-diazaspiro[5.5]undecan-1-one], the figures for the Ki on hOx1R and on hOx2R were 1700 nM and 320 nM, respectively.
Regarding `O=C1N(Cc2c[nH]c3ccccc23)CCCC12CCN(c1cc(-n3ccnc3)ncn1)CC2` [Example 158, 9-(6-(1H-imidazo-1-yl)pyrimidin-4-yl)-2-((1H-indol-3-yl)methyl)-2,9-diazaspiro[5.5]undecan-1-one], the inhibition at 10 µM on hOx1R was found to be 21%. Also, on hOx2R, the Ki is 545 nM.
